Test results reported in PubChem BioAssay (NCI).
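Cells were grown in 96-well plates and exposed to each compound for 48 hours at five concentrations; endpoints were interpolated linearly between bracketing concentrations, or set to the highest concentration if not reached. Abbreviation: GI50, concentration required for 50% inhibition of growth. The concentration for full growth arrest is given as TGI.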

What was measured:
Assay in all cases: growth of human tumour cells (NCI), 48 h
TK-10 renal = system: TK-10 renal
SK-MEL-5 melanoma = system: SK-MEL-5 melanoma
HT29 colon = system: HT29 colon
SR leukemia = system: SR leukemia
OVCAR-5 ovarian = system: OVCAR-5 ovarian
IGROV1 ovarian = system: IGROV1 ovarian
A549 NSCLC = system: A549 NSCLC
HOP-62 NSCLC = system: HOP-62 NSCLC
MOLT-4 leukemia = system: MOLT-4 leukemia
SK-MEL-2 melanoma = system: SK-MEL-2 melanoma
RXF 393 renal = system: RXF 393 renal
LOX IMVI melanoma = system: LOX IMVI melanoma
CAKI-1 renal = system: CAKI-1 renal
HS 578T breast = system: HS 578T breast
M14 melanoma = system: M14 melanoma
U251 CNS = system: U251 CNS
COLO 205 colon = system: COLO 205 colon
RPMI-8226 leukemia = system: RPMI-8226 leukemia
KM12 colon = system: KM12 colon
SK-MEL-28 melanoma = system: SK-MEL-28 melanoma
PC-3 prostate = system: PC-3 prostate
OVCAR-3 ovarian = system: OVCAR-3 ovarian
A498 renal = system: A498 renal
SN12C renal = system: SN12C renal
SNB-75 CNS = system: SNB-75 CNS
K-562 leukemia = system: K-562 leukemia
MALME-3M melanoma = system: MALME-3M melanoma
MCF7 breast = system: MCF7 breast
NCI-H460 lung = system: NCI-H460 lung
SNB-19 CNS = system: SNB-19 CNS
SF-539 CNS = system: SF-539 CNS
OVCAR-8 ovarian = system: OVCAR-8 ovarian
T-47D breast = system: T-47D breast
786-0 renal = system: 786-0 renal
SK-OV-3 ovarian = system: SK-OV-3 ovarian
HCT-15 colon = system: HCT-15 colon
SF-295 CNS = system: SF-295 CNS
CCRF-CEM leukemia = system: CCRF-CEM leukemia
UO-31 renal = system: UO-31 renal
ACHN renal = system: ACHN renal
MDA-MB-435 = system: MDA-MB-435
NCI-H226 lung = system: NCI-H226 lung
HL-60(TB) leukemia = system: HL-60(TB) leukemia
UACC-62 melanoma = system: UACC-62 melanoma
DU-145 prostate = system: DU-145 prostate
MDA-MB-231 breast = system: MDA-MB-231 breast
HOP-92 NSCLC = system: HOP-92 NSCLC

`COC(=O)[C@]12CC[C@@H](C(=O)/C=C/c3cccnc3)[C@@H]1[C@H]1CC[C@@H]3[C@@]4(C)C/C(=C/c5cccnc5)C(=O)C(C)(C)[C@@H]4CC[C@@]3(C)[C@]1(C)CC2` gave a GI50 (TK-10 renal) of 701 nM, a TGI (TK-10 renal) of 2070 nM and a GI50 (SK-MEL-5 melanoma) of 335 nM. For the same compound, the TGI (SK-MEL-5 melanoma) was 983 nM, the GI50 (HT29 colon) was 319 nM and the TGI (HT29 colon) was 1020 nM. It also gave a GI50 (SR leukemia) of 281 nM, a TGI (SR leukemia) of 1270 nM and a GI50 (OVCAR-5 ovarian) of 369 nM. For the same compound, the TGI (OVCAR-5 ovarian) was 1340 nM, the GI50 (IGROV1 ovarian) was 241 nM and the TGI (IGROV1 ovarian) was 570 nM. For the same compound, the GI50 (A549 NSCLC) was 401 nM, the TGI (A549 NSCLC) was 2310 nM and the GI50 (HOP-62 NSCLC) was 789 nM. For the same compound, the TGI (HOP-62 NSCLC) was 2340 nM, the GI50 (MOLT-4 leukemia) was 359 nM and the TGI (MOLT-4 leukemia) was 1770 nM. For the same compound, the GI50 (SK-MEL-2 melanoma) was 296 nM, the TGI (SK-MEL-2 melanoma) was 1020 nM and the GI50 (RXF 393 renal) was 219 nM. For the same compound, the TGI (RXF 393 renal) was 509 nM, the GI50 (LOX IMVI melanoma) was 210 nM and the TGI (LOX IMVI melanoma) was 442 nM. For the same compound, the GI50 (CAKI-1 renal) was 716 nM, the TGI (CAKI-1 renal) was 2000 nM and the GI50 (HS 578T breast) was 395 nM. For the same compound, the TGI (HS 578T breast) was 1930 nM, the GI50 (M14 melanoma) was 310 nM and the TGI (M14 melanoma) was 1010 nM. The GI50 (U251 CNS) was 360 nM, the TGI (U251 CNS) was 1340 nM and the GI50 (COLO 205 colon) was 357 nM. It also gave a TGI (COLO 205 colon) of 1350 nM, a GI50 (RPMI-8226 leukemia) of 258 nM and a TGI (RPMI-8226 leukemia) of 838 nM. For the same compound, the GI50 (KM12 colon) was 317 nM, the TGI (KM12 colon) was 1050 nM and the GI50 (SK-MEL-28 melanoma) was 245 nM. The TGI (SK-MEL-28 melanoma) was 565 nM, the GI50 (PC-3 prostate) was 412 nM and the TGI (PC-3 prostate) was 2090 nM. The GI50 (OVCAR-3 ovarian) was 231 nM, the TGI (OVCAR-3 ovarian) was 514 nM and the GI50 (A498 renal) was 224 nM. It also gave a TGI (A498 renal) of 947 nM, a GI50 (SN12C renal) of 429 nM and a TGI (SN12C renal) of 1670 nM. It also gave a GI50 (SNB-75 CNS) of 1350 nM, a TGI (SNB-75 CNS) of 2630 nM and a GI50 (K-562 leukemia) of 309 nM. It also gave a TGI (K-562 leukemia) of over 100000 nM, a GI50 (MALME-3M melanoma) of 201 nM and a TGI (MALME-3M melanoma) of 416 nM. The GI50 (MCF7 breast) was 387 nM, the TGI (MCF7 breast) was 1830 nM and the GI50 (NCI-H460 lung) was 510 nM. For the same compound, the TGI (NCI-H460 lung) was 1570 nM, the GI50 (SNB-19 CNS) was 665 nM and the TGI (SNB-19 CNS) was 1970 nM. It also gave a GI50 (SF-539 CNS) of 207 nM, a TGI (SF-539 CNS) of 473 nM and a GI50 (OVCAR-8 ovarian) of 388 nM. It also gave a TGI (OVCAR-8 ovarian) of 1870 nM, a GI50 (T-47D breast) of 405 nM and a TGI (T-47D breast) of 2420 nM. The GI50 (786-0 renal) was 374 nM, the TGI (786-0 renal) was 1330 nM and the GI50 (SK-OV-3 ovarian) was 2730 nM. The TGI (SK-OV-3 ovarian) was 6890 nM, the GI50 (HCT-15 colon) was 247 nM and the TGI (HCT-15 colon) was 666 nM. For the same compound, the GI50 (SF-295 CNS) was 382 nM, the TGI (SF-295 CNS) was 1440 nM and the GI50 (CCRF-CEM leukemia) was 334 nM. The TGI (CCRF-CEM leukemia) was 1650 nM, the GI50 (UO-31 renal) was 167 nM and the TGI (UO-31 renal) was 331 nM. The GI50 (ACHN renal) was 191 nM, the TGI (ACHN renal) was 348 nM and the GI50 (MDA-MB-435) was 204 nM. The TGI (MDA-MB-435) was 420 nM, the GI50 (NCI-H226 lung) was 260 nM and the TGI (NCI-H226 lung) was 597 nM. It also gave a GI50 (HL-60(TB) leukemia) of 292 nM, a TGI (HL-60(TB) leukemia) of 1510 nM and a GI50 (UACC-62 melanoma) of 327 nM. It also gave a TGI (UACC-62 melanoma) of 1050 nM, a GI50 (DU-145 prostate) of 773 nM and a TGI (DU-145 prostate) of 2030 nM. It also gave a GI50 (MDA-MB-231 breast) of 223 nM, a TGI (MDA-MB-231 breast) of 508 nM and a GI50 (HOP-92 NSCLC) of 434 nM. It also gave a TGI (HOP-92 NSCLC) of 1730 nM.
